One may read the IC50 as the concentration that gives 50% inhibition. As usually defined, the clearance is a measure of how efficiently the substance is removed, as volume per time. A lower clearance goes with inefficient removal. The Kp is the ratio of the level in a tissue or fluid to that in plasma or blood. For orientation: inhibition means the change of the read-out against control, counted positive when it falls. Higher therefore signals a strong effect.

Molecules are shown by their SMILES.

The target of data set [1] is Glutamate receptor ionotropic, NMDA 2B (Rattus norvegicus, UniProt Q00960). Kind of data set: Displacement of [3H]-ifenprodil from NR2B receptor in rat brain cerebral cortex membranes incubated for 120 mins by liquid scintillation counting method. In kind it is cell membranes. In general terms: In a radioligand displacement assay an active substance lowers the binding of a labelled ligand.

Data set [2] concerns the target Glutamate receptor ionotropic, NMDA 2B (Mus musculus, UniProt P35438+Q01097). In words: Antagonist activity at mouse NR2B receptor expressed in HEK293 cells co-expressing NR1 subunit assessed as reduction in glutamic acid/glycine-induced calcium ion influx by fluorescence based assay. Type of data set: cell-based.
The nature of data set [3]: Total clearance in Sprague-Dawley rat at 0.5 mg/kg, iv dosed via cassette dosing. In kind it is ADME, organism-based. The note with it: in vivo.
A short description of data set [4]: Oral bioavailability in Sprague-Dawley rat at 1 mg/kg dosed via cassette dosing. In kind it is ADME, organism-based. Conditions: in vivo.
Data set [5] can be described thus: […] coefficient, ratio of total drug level in brain to plasma in Sprague-Dawley rat at 0.5 mg/kg, iv dosed via cassette dosing measured after 0.5 hrs. In kind it is ADME, organism-based. Conditions: brain and plasma.
For a further data set, the system named is Rattus norvegicus. In words: Analgesic activity in rat model of partial sciatic nerve ligation model assessed as increase in pain threshold at 2.5 to 10 mg/kg, po measured after 3 hrs by Von Frey filament test. The note with it: read-out: MED. In kind it is functional.
A further data set has as its target hERG (KCNH2) (Homo sapiens, UniProt Q12809). In words: Inhibition of human ERG expressed in HEK293 cells at 1 uM. The note with it: HEK293 cells expressing human ERG. Type of data set: cell-based.

Sequence of Glutamate receptor ionotropic, NMDA 2B (Mus musculus, UniProt P35438+Q01097) (Q01097 whole entry, one chain of several): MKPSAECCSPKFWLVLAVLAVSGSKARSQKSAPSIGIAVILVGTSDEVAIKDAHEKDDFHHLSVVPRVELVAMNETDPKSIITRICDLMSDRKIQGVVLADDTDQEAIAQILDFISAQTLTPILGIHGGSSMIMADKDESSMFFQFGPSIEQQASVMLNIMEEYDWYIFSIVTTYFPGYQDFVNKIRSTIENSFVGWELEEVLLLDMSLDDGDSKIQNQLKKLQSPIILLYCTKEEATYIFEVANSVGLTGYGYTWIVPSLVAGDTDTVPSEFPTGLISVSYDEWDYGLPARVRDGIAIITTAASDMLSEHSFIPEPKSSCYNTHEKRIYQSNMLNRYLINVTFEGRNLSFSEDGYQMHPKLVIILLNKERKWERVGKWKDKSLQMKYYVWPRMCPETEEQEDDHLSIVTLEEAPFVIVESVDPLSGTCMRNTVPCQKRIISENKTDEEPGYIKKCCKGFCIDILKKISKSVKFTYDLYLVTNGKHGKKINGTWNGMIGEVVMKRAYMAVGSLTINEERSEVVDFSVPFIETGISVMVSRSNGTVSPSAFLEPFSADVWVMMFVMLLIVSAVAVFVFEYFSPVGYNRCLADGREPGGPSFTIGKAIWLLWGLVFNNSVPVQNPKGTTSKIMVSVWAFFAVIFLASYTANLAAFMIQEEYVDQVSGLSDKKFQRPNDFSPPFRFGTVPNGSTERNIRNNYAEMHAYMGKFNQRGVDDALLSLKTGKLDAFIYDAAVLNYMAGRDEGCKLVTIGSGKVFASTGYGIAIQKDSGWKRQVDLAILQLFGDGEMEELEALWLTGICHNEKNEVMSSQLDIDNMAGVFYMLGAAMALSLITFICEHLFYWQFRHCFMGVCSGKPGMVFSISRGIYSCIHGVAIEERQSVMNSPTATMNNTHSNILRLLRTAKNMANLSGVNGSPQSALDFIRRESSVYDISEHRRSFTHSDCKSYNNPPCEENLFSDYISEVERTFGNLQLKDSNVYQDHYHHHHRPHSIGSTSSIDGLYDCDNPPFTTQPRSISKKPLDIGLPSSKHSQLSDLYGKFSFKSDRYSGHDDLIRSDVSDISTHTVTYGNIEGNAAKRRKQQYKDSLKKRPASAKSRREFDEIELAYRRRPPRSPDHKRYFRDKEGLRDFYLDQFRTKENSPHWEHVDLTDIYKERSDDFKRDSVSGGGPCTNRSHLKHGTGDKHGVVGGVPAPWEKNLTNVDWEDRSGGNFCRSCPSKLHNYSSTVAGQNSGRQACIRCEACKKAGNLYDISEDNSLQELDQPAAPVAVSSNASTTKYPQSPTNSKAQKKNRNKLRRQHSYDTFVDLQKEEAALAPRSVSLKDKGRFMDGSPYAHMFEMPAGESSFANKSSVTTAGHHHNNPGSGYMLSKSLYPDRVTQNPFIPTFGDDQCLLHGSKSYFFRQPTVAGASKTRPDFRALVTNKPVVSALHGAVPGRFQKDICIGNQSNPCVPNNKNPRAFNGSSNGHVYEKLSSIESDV
Sequence of hERG (KCNH2) (Q12809 whole entry): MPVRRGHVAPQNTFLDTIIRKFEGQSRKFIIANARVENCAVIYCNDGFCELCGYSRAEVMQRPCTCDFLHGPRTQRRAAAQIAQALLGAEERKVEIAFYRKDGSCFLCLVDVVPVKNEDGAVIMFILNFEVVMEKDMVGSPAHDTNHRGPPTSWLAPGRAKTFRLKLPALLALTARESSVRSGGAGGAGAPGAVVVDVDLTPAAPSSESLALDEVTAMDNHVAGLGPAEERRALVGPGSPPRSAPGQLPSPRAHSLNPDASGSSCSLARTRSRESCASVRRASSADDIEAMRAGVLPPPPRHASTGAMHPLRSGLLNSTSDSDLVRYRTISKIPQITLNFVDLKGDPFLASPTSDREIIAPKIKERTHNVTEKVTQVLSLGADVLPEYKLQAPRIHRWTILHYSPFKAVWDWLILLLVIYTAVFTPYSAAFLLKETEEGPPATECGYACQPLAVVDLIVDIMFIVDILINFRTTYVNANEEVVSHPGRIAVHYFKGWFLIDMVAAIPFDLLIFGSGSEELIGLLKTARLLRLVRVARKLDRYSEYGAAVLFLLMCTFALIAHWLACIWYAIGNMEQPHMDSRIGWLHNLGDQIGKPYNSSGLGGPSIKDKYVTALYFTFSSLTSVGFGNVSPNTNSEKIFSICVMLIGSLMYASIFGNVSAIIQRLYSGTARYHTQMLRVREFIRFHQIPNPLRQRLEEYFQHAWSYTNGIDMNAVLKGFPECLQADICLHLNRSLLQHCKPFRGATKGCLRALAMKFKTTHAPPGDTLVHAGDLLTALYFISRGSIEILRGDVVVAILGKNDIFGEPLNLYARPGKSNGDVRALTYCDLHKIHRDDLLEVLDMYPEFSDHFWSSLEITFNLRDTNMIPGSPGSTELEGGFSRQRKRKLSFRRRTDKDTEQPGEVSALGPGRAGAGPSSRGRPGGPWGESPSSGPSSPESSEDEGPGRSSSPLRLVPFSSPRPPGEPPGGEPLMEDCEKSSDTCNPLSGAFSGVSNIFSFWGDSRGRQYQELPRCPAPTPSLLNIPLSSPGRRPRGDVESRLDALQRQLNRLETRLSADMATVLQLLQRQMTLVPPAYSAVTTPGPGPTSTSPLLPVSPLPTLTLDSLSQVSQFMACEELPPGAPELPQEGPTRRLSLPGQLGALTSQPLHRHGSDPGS
Sequence of Glutamate receptor ionotropic, NMDA 2B (Rattus norvegicus, UniProt Q00960) (Q00960 whole entry): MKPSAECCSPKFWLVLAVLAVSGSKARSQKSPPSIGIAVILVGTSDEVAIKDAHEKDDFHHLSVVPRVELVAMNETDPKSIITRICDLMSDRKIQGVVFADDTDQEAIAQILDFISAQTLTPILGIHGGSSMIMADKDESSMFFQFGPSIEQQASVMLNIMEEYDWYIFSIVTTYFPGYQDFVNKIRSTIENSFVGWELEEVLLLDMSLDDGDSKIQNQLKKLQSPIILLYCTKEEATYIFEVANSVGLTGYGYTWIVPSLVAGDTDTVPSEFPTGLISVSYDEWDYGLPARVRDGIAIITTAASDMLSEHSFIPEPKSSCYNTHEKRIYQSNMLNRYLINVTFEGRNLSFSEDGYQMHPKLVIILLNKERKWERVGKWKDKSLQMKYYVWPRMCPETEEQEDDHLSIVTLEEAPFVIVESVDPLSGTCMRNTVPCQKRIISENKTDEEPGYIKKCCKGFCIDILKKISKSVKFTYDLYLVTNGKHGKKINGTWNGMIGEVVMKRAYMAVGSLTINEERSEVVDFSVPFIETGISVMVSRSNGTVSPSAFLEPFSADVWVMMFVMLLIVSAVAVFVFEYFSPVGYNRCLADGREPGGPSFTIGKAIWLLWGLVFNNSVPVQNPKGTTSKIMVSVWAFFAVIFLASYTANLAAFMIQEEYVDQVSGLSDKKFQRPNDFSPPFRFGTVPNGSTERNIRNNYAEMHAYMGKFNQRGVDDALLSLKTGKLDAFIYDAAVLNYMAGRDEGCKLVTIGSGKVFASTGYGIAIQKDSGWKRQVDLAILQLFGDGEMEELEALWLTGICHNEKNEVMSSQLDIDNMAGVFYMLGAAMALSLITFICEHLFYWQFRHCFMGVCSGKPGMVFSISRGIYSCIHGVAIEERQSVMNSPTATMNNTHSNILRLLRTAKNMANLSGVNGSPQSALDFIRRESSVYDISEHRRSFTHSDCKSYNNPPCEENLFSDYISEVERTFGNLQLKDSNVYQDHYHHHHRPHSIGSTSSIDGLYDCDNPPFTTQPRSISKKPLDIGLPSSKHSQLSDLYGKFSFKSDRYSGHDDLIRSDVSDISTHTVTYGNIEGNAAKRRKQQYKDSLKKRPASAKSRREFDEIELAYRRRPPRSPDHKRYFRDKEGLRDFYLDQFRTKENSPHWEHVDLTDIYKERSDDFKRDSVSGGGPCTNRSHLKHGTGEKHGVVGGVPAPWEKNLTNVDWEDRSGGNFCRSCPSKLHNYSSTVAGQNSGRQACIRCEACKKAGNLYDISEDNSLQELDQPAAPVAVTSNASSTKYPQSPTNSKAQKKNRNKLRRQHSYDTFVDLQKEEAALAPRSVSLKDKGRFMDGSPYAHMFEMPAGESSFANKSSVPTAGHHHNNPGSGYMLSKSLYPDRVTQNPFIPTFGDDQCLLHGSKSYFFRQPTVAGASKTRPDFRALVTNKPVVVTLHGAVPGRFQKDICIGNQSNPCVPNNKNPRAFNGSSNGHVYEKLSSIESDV

Consider `O=C(c1cc(-c2ccc(=O)[nH]c2)on1)N1CCC(Cc2ccccc2)CC1`, for which the concentration for half-maximal inhibition (IC50) in data set [1] and in data set [2] was 0.0631 µM throughout. The clearance in data set [3] was 19.3 mL/min/kg. The bioavailability in data set [4] is 18.4%. In addition, in data set [5], the partition ratio (Kp) at 0.5 h is 0.37.

For the compound `COc1ccc(N2CCN(C(=O)C(=O)Nc3ccc4[nH]c(=O)oc4c3)CC2)cc1`, the half-maximal inhibitory concentration (IC50) in data set [1] was 0.251 µM; in data set [2], 0.2 µM.

Turning to `C[C@@H]1CN(C(=O)C(=O)Nc2ccc3[nH]c(=O)oc3c2)CCN1c1ccc(Cl)cc1`, the IC50 was 0.0631 µM in data set [1] and 0.00631 µM in data set [2]. Besides, in data set [3], the clearance was 15.6 mL/min/kg. Also, in data set [4], the bioavailability amounted to 52.6%. In addition, the Kp at 0.5 h in data set [5] is 1.85. Moreover, the minimal effective dose in the data set with Rattus norvegicus stood at 10 mg/kg. In addition, the inhibition at 1 µM on hERG (KCNH2) was 25%.

In the case of `C[C@H]1CN(C(=O)C(=O)Nc2ccc3[nH]c(=O)oc3c2)CCN1c1ccc(Cl)cc1`, the IC50 in data set [1] was 0.631 µM; in data set [2], 0.1 µM.

As for `O=C(Nc1ccc2[nH]c(=O)oc2c1)C(=O)N1CCN(Cc2ccc(Cl)cc2)CC1`, the IC50 in data set [1] is 0.501 µM; in data set [2] it was 0.0631 µM. Further, the clearance in data set [3] is 6.8 mL/min/kg. Besides, the bioavailability in data set [4] was 7.4%. Further, the Kp at 0.5 h in data set [5] amounted to 0.41.

In the case of `O=C(c1cc(-c2cc[nH]n2)on1)N1CCC(Cc2ccc(Cl)cc2)CC1`, the IC50 in data set [1] was 0.0631 µM; in data set [2] it was 0.0398 µM. The same compound registered a clearance in data set [3] of 29.2 mL/min/kg. For the same compound, the bioavailability in data set [4] came out at 0.6%. Moreover, the Kp at 0.5 h in data set [5] is 3.27.

The compound `O=C(Nc1ccc2[nH]c(=O)oc2c1)C(=O)N1CCN(c2ccc(Cl)cc2)CC1` showed an IC50 in data set [1] of 0.0158 µM. The compound further had a clearance in data set [3] of 7.2 mL/min/kg. In data set [4], the bioavailability turned out to be 17.8%. In data set [5], the Kp at 0.5 h is 0.53.

Consider `O=C1Cc2cc(NC(=O)C(=O)N3CCN(c4ccc(Cl)cc4)CC3)ccc2N1`, for which the IC50 in data set [1] was > 1 µM.

In the case of `O[C@]1(Cc2cc(-c3cn[nH]c3)on2)CC[C@@H](Cc2ccc(C(F)(F)F)cc2)CC1`, the results for the IC50 in data set [1] and in data set [2] were 0.1 µM and 0.0126 µM, respectively. Further, the clearance in data set [3] was determined as 4 mL/min/kg. For the same compound, the bioavailability in data set [4] was found to be 67.5%. In addition, the Kp at 0.5 h in data set [5] is 2.66.

For `O=C(Nc1ccc2[nH]c(=O)oc2c1)C(=O)N1CCN(c2ccccc2)CC1`, the IC50 in data set [1] was > 1 µM.

Turning to `O=C(Nc1ccc2[nH]c(=O)oc2c1)C(=O)N1CCN(c2ccc(C(F)(F)F)cc2)CC1`, the IC50 was 0.0251 µM in data set [1] and 0.00631 µM in data set [2]. The compound further registered a clearance in data set [3] of 15.1 mL/min/kg. Also, the bioavailability in data set [4] turned out to be 24.8%. For the same compound, in data set [5], the concentration ratio (Kp) at 0.5 h is 2.99.

For the compound `O=C(c1cc(-c2ccc(=O)[nH]c2)on1)N1CCN(Cc2ccc(Cl)cc2)CC1`, the IC50 in data set [1] is > 1 µM.

Take `O=C(c1cc(-c2ccc(=O)[nH]c2)on1)N1CCC(Cc2ccc(Cl)cc2)CC1`: the IC50 in data set [1] is 0.0251 µM; in data set [2], 0.01 µM. In addition, in data set [3], the clearance stood at 5.4 mL/min/kg. Further, the bioavailability in data set [4] was found to be 9.3%. The Kp at 0.5 h in data set [5] turned out to be 0.38.

As for `O=C(Nc1ccc2[nH]c(=O)oc2c1)C(=O)N1CCN(c2ccc(F)cc2)CC1`, the concentration for half-maximal inhibition (IC50) in data set [1] and in data set [2] was 0.126 µM in each case. The clearance in data set [3] was found to be 11.1 mL/min/kg. Further, the bioavailability in data set [4] was 39.3%.

On to `O=C(Nc1ccc2[nH]c(=O)oc2c1)C(=O)N1CCN(c2cc(F)cc(F)c2)CC1`, for which the IC50 in data set [1] is 0.158 µM; in data set [2], 0.1 µM.

Regarding `O=C(Nc1ccc2[nH]c(=O)oc2c1)C(=O)N1CCN(c2ccc(F)c(F)c2)CC1`, the IC50 was 0.02 µM in data set [1] and 0.01 µM in data set [2]. Also, the clearance in data set [3] came to 4 mL/min/kg. Besides, the bioavailability in data set [4] came to 13%. Also, the concentration ratio (Kp) at 0.5 h in data set [5] was found to be 0.82.

As to `O=C(Nc1ccc2[nH]c(=O)oc2c1)C(=O)N1CCN(c2ccc(F)c(Cl)c2)CC1`, the 50% inhibitory concentration (IC50) was 0.0316 µM in data set [1] and 0.01 µM in data set [2]. The same compound showed a clearance in data set [3] of 18.3 mL/min/kg. The bioavailability in data set [4] came out at 24.6%. Besides, the Kp at 0.5 h in data set [5] stood at 1.24.

`O=C(c1cc(-c2cc[nH]n2)on1)N1CCC(Cc2ccccc2)CC1`: the figures for the IC50 in data set [1] and in data set [2] were 0.0794 µM and 0.0501 µM, respectively. The compound further yielded a clearance in data set [3] of 71.6 mL/min/kg. Further, the bioavailability in data set [4] turned out to be 0.2%. Also, in data set [5], the Kp at 0.5 h was 3.89.

With `C[C@@H]1CN(C(=O)C(=O)Nc2ccc3[nH]c(=O)oc3c2)CCN1c1ccc(F)c(F)c1`, the figures for the half-maximal inhibitory concentration (IC50) in data set [1] and in data set [2] were 0.0631 µM and 0.01 µM, respectively. The compound further gave a clearance in data set [3] of 15.9 mL/min/kg. Further, the bioavailability in data set [4] came to 25.3%. For the same compound, the Kp at 0.5 h in data set [5] came to 1.89.

As for `O=C(c1cc(-c2ccc(=O)[nH]c2)on1)N1CCC(Cc2ccc(F)cc2)CC1`, the results for the concentration for half-maximal inhibition (IC50) in data set [1] and in data set [2] were 0.0501 µM and 0.0398 µM, respectively. Besides, in data set [3], the clearance came to 19.7 mL/min/kg. Further, the bioavailability in data set [4] is 18.4%. Besides, the Kp at 0.5 h in data set [5] is 0.5.

For the compound `C[C@@H]1CN(c2ccc(Cl)cc2)CCN1C(=O)C(=O)Nc1ccc2[nH]c(=O)oc2c1`, the IC50 in data set [1] was 0.0316 µM; in data set [2], 0.00631 µM. Also, the clearance in data set [3] was found to be 5.4 mL/min/kg. The bioavailability in data set [4] amounted to 130%. Further, in data set [5], the Kp at 0.5 h was determined as 0.95. In the data set with Rattus norvegicus, the minimal effective dose is 10 mg/kg. Moreover, the inhibition at 1 µM against hERG (KCNH2) came out at 36%.

As to `C[C@@H]1CN(C(=O)C(=O)Nc2ccc3[nH]c(=O)oc3c2)CCN1c1ccc(Cl)c(F)c1`, the IC50 is 0.0501 µM in data set [1] and 0.00316 µM in data set [2]. In data set [3], this compound gave a clearance of 6 mL/min/kg. For the same compound, the bioavailability in data set [4] was determined as 32%. For the same compound, in data set [5], the concentration ratio (Kp) at 0.5 h stood at 1.19. Besides, in the data set with Rattus norvegicus, the minimal effective dose stood at 2.5 mg/kg. Besides, the inhibition at 1 µM at hERG (KCNH2) was 10%.

`O=C(c1cc(-c2cc[nH]n2)on1)N1CCC(Cc2ccc(F)cc2)CC1`: the IC50 in data set [1] was 0.0794 µM; in data set [2] it was 0.0631 µM.

With `C[C@@H]1CN(c2ccc(F)c(F)c2)CCN1C(=O)C(=O)Nc1ccc2[nH]c(=O)oc2c1`, the IC50 is 0.0501 µM in data set [1] and 0.00631 µM in data set [2]. In data set [3], this compound had a clearance of 5.6 mL/min/kg. Besides, the bioavailability in data set [4] turned out to be 118%. For the same compound, the Kp at 0.5 h in data set [5] is 0.67.

With `O=C(Nc1ccc2[nH]c(=O)oc2c1)C(=O)N1CCN(c2ccc(Cl)c(F)c2)CC1`, in data set [1], the IC50 is 0.0126 µM. In addition, in data set [3], the clearance stood at 5.6 mL/min/kg. Besides, the bioavailability in data set [4] was determined as 28.2%. Moreover, the Kp at 0.5 h in data set [5] was 0.79.

With `COc1ccc(N2CCN(C(=O)C(=O)Nc3ccc4[nH]c(=O)oc4c3)CC2)cc1F`, the IC50 in data set [1] and in data set [2] was 0.0158 µM each time. Moreover, in data set [3], the clearance stood at 101 mL/min/kg. Further, in data set [4], the bioavailability turned out to be 0.6%. In data set [5], the Kp at 0.5 h amounted to 3.17.

Turning to `O=C(Nc1ccc2[nH]c(=O)oc2c1)C(=O)N1CCN(c2ccc(C(F)(F)F)c(F)c2)CC1`, the values for the IC50 in data set [1] and in data set [2] were 0.0158 µM and 0.001 µM, respectively. In addition, the clearance in data set [3] was 5.6 mL/min/kg. In data set [4], the bioavailability turned out to be 8.7%. The Kp at 0.5 h in data set [5] is 0.65.

Consider `C[C@H]1CN(c2ccc(Cl)cc2)CCN1C(=O)C(=O)Nc1ccc2[nH]c(=O)oc2c1`, for which the IC50 in data set [1] was > 1 µM.

Regarding `O=C1CCc2cc(NC(=O)C(=O)N3CCN(c4ccc(Cl)cc4)CC3)ccc2N1`, the 50% inhibitory concentration (IC50) in data set [1] was > 1 µM.

On to `O=C(c1cc(-c2ccc(=O)[nH]c2)on1)N1CCN(c2ccc(Cl)cc2)CC1`, for which the IC50 in data set [1] is > 1 µM.

Take `C[C@@H]1CN(c2ccc(Cl)c(F)c2)CCN1C(=O)C(=O)Nc1ccc2[nH]c(=O)oc2c1`: the IC50 in data set [1] is 0.0126 µM; in data set [2], 0.002 µM. For the same compound, in data set [3], the clearance is 1.37 mL/min/kg. Besides, the bioavailability in data set [4] was found to be 30.4%. For the same compound, the Kp at 0.5 h in data set [5] stood at 0.99. The minimal effective dose in the data set with Rattus norvegicus was 5 mg/kg. For the same compound, the inhibition at 1 µM on hERG (KCNH2) was 29%.
